Data as given in PubChem BioAssay AID1259407 (Chemical Carcinogenesis Research Information System (CCRIS), 2018).
Active and inactive are the calls of the source. The rule behind the calls is not given here.

Tested on: CCRIS mutagenicity, Ames/micronucleus/aberration tests
Assay: CCRIS mutagenicity studies
Conditions: Test System: AMES SALMONELLA TYPHIMURIUM
[1] = Strain/Indicator: TA98, Metabolic Activation: NONE, Method: STANDARD PLATE
[2] = Strain/Indicator: TA98, Metabolic Activation: RAT, LIVER, S-9, AROCLOR 1254, Method: STANDARD PLATE
[3] = Strain/Indicator: TA100, Metabolic Activation: NONE, Method: PREINCUBATION
[4] = Strain/Indicator: TA100, Metabolic Activation: NONE, Method: STANDARD PLATE
[5] = Strain/Indicator: TA100, Metabolic Activation: RAT, LIVER, S-9, AROCLOR 1254, Method: STANDARD PLATE
[6] = Strain/Indicator: TA1535, Metabolic Activation: NONE, Method: STANDARD PLATE
[7] = Strain/Indicator: TA1535, Metabolic Activation: RAT, LIVER, S-9, AROCLOR 1254, Method: STANDARD PLATE
[8] = Strain/Indicator: TA1537, Metabolic Activation: NONE, Method: STANDARD PLATE
[9] = Strain/Indicator: TA1537, Metabolic Activation: RAT, LIVER, S-9, AROCLOR 1254, Method: STANDARD PLATE
[10] = Strain/Indicator: TA1538, Metabolic Activation: NONE, Method: STANDARD PLATE
[11] = Strain/Indicator: TA1538, Metabolic Activation: RAT, LIVER, S-9, AROCLOR 1254, Method: STANDARD PLATE
[12] = Strain/Indicator: TA1537, Metabolic Activation: NONE, Method: PREINCUBATION

SMILES	mutagenic call [1]	mutagenic call [2]	mutagenic call [3]	mutagenic call [4]	mutagenic call [5]	mutagenic call [6]	mutagenic call [7]	mutagenic call [8]	mutagenic call [9]	mutagenic call [10]	mutagenic call [11]	mutagenic call [12]	also measured
O=C(O)Cc1c[nH]c2ccccc12	inactive; negative	inactive; negative	inactive; negative	inactive; negative	inactive; negative	inactive; negative	inactive; negative	inactive; negative	inactive; negative	inactive; negative	inactive; negative	–	mutagenic call (Strain/Indicator: TA97A, Metabolic Activation: NONE, Method: STANDARD PLATE): inactive; negative; mutagenic call (Strain/Indicator: TA97A, Metabolic Activation: RAT, LIVER, S-9, AROCLOR 1254, Method: STANDARD PLATE): inactive; negative; mutagenic call (Strain/Indicator: TA98, Metabolic Activation: RAT LIVER S-9, 3-METHYLCHOLANTHRENE AND PHENOBARBITAL, Method: STANDARD PLATE): inactive; negative; mutagenic call (Strain/Indicator: TA100, Metabolic Activation: RAT LIVER S-9, 3-METHYLCHOLANTHRENE AND PHENOBARBITAL, Method: STANDARD PLATE): inactive; negative
O=S(=O)(Cc1ccccc1)N1[C@@H]2c3ccccc3-c3ccccc3[C@@H]21 (stereo partly specified)	–	–	–	active; positive	–	–	–	–	–	–	–	–	–
CC(C)CCC[C@@H](C)[C@H]1CC[C@H]2[C@@H]3C=CC4(OO)C[C@@H](O)CC[C@]4(C)[C@H]3CC[C@]12C (stereo partly specified)	–	–	–	–	–	–	–	–	–	–	–	active; positive	–
O=c1cn[nH]c(=O)[nH]1	inactive; negative	active; positive	inactive; negative	inactive; negative	inactive; negative	inactive; negative	inactive; negative	inactive; negative	inactive; negative	inactive; negative	active; positive	inactive; negative	mutagenic call (Strain/Indicator: TA98, Metabolic Activation: MAIZE SEEDLING, S-14, Method: PREINCUBATION): inactive; negative; mutagenic call (Strain/Indicator: TA98, Metabolic Activation: MOUSE, LIVER, S-9, Method: PREINCUBATION): inactive; negative; mutagenic call (Strain/Indicator: TA98, Metabolic Activation: NONE, Method: PREINCUBATION): inactive; negative; mutagenic call (Strain/Indicator: TA100, Metabolic Activation: MAIZE SEEDLING, S-14, Method: PREINCUBATION): inactive; negative; mutagenic call (Strain/Indicator: TA100, Metabolic Activation: MOUSE, LIVER, S-9, Method: PREINCUBATION): inactive; negative; mutagenic call (Strain/Indicator: TA1535, Metabolic Activation: NONE, Method: PREINCUBATION): inactive; negative; mutagenic call (Strain/Indicator: TA1538, Metabolic Activation: NONE, Method: PREINCUBATION): inactive; negative
